Square brackets hold non-standard residues; d marks the D form. Peptide text beside a SMILES is read from it. * marks the point of attachment. Phe(4-guanidino) = N=C(N)Nc1ccc(C[C@H](N)C(=O)O)cc1; Phe(4-Me) = Cc1ccc(C[C@H](N)C(=O)O)cc1; Phg = N[C@H](C(=O)O)c1ccccc1; Nle = CCCC[C@H](N)C(=O)O; Cbz = O=C(OCc1ccccc1)*; Bz = O=C(c1ccccc1)*; Bn = c1ccc(C*)cc1
Molecular target: Protease (Human immunodeficiency virus 1, UniProt Q9YQ12)
Experiment: Inhibition of HIV1 protease

Chain of Protease (Q9YQ12 whole entry): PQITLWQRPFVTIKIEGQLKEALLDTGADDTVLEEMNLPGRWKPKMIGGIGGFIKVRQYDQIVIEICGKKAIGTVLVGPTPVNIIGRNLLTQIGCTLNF

| Compound | Ki [nM] |
| --- | --- |
| O=C1N(Cc2ccc3ccccc3c2)[C@H](Cc2ccccc2)[C@H](O)[C@@H](O)[C@@H](Cc2ccccc2)N1Cc1ccc2ccccc2c1 | 0.05 |
| CC1(C)S[C@H]([C@H](NC(=O)Cc2ccccc2)C(=O)NCc2ccccc2)N[C@H]1C(=O)N[C@H](Cc1ccccc1)[C@H](O)CC(=O)NCc1nc2ccccc2[nH]1 | 3.2 |
| CC(C)[C@H](NC(=O)N(C)Cc1ccccn1)C(=O)NC(Cc1ccccc1)[C@H](O)[C@H](O)[C@H](Cc1ccccc1)NC(=O)[C@@H](NC(=O)N(C)Cc1ccccn1)C(C)C (stereo partly specified) | 1100 |
| COC(=O)[C@@H](NC(=O)[C@@H](NC(=O)[C@H](C)N1CCC([C@H](C)NC(=O)[C@H](C)N)=C[C@@H](Cc2ccccc2)C1)C(C)C)C(C)C | 437 |
| CC(=O)N[C@H](C(=O)N[C@H](C(=O)N[C@@H](CC(C)C)[C@@H](O)CC(=O)N[C@@H](C)C(=O)N[C@@H](CC(C)C)C(O)CC(=O)O)C(C)C)C(C)C (single isomer, unassigned) [ACETYLPEPSTATIN] | 1100 |

Tested on: not listed separately
Experiment: Inhibition of West Nile virus NS3 protease

| Compound | IC50 [µM] |
| --- | --- |
| CCCC[C@H](NCc1ccccc1)C(=O)N[C@@H](CCCCN)C(=O)N[C@@H](CCCNC(=N)N)C(=O)N[C@H](C=O)Cc1ccc(C#N)cc1 | 62 |
| N=C(N)NCCC[C@@H](C=O)NC(=O)[C@H](CCCNC(=N)N)NC(=O)[C@H](CCCCN)Nc1cccnc1 | 1 |
| CCCC[C@H](NCc1ccccc1)C(=O)N[C@@H](CCCCN)C(=O)N[C@@H](CCCNC(=N)N)C(=O)N[C@H](C=O)Cc1c[nH]c2ccccc12 | 10 |
| CC(=O)N[C@@H](CCCCN)C(=O)N[C@@H](CCCNC(=N)N)C(=O)N[C@H](C=O)CCCNC(=N)N (Ac-Lys-Arg-Arg-aldehyde) | 0.5 |
| CC(=O)N[C@@H](CCCCN)C(=O)N[C@@H](CCCCN)C(=O)N[C@H](C=O)CCCNC(=N)N (Ac-Lys-Lys-Arg-aldehyde) | 0.4 |
| C[C@H](NC(=O)c1ccccc1)C(=O)N[C@@H](CCCCN)C(=O)N[C@@H](CCCNC(=N)N)C(=O)N[C@H](C=O)CCCNC(=N)N (Bz-AKRR-aldehyde) | 0.7 |
| N=C(N)NCCC[C@@H](C=O)NC(=O)[C@H](CCCNC(=N)N)NC(=O)c1ccccc1 (Bz-Arg-Arg-aldehyde) | 3.9 |
| N=C(N)NCCC[C@H](NC(=O)c1ccccc1)C(=O)N[C@H](C=O)CCCCN (Bz-Arg-Lys-aldehyde) | 57.5 |
| NCCCC[C@H](NC(=O)[C@H](Cc1ccccc1)NC(=O)c1ccccc1)C(=O)N[C@@H](CCCN=C(N)N)C(=O)N[C@H](C=O)CCCN=C(N)N (Bz-FKRR-aldehyde) | 1.2 |
| N=C(N)NCCC[C@@H](C=O)NC(=O)[C@H](CCCCNC(=O)OCc1ccccc1)NC(=O)c1ccccc1 (Bz-Lys(Cbz)-Arg-aldehyde) | 436 |
| N=C(N)NCCC[C@@H](C=O)NC(=O)[C@H](CCCNC(=N)N)NC(=O)[C@H](CCCCN)NC(=O)c1ccccc1 (Bz-Lys-Arg-Arg-aldehyde) | 1.5 |
| N=C(N)NCCC[C@H](NC(=O)[C@H](CCCCN)NC(=O)c1ccccc1)C(=O)N[C@H](C=O)Cc1ccccc1 (Bz-Lys-Arg-Phe-aldehyde) | 71.1 |
| N=C(N)NCCC[C@H](NC(=O)[C@H](CCCCN)NC(=O)c1ccccc1)C(=O)N[C@H](C=O)Cc1ccc(OCc2ccccc2)cc1 (Bz-Lys-Arg-Tyr(Bn)-aldehyde) | 11.8 |
| N=C(N)NCCC[C@H](NC(=O)[C@H](CCCCN)NC(=O)c1ccccc1)C(=O)N[C@H](C=O)Cc1ccc(O)cc1 (Bz-Lys-Arg-Tyr-aldehyde) | 14.6 |
| Cc1ccc(C[C@@H](C=O)NC(=O)[C@H](CCCNC(=N)N)NC(=O)[C@H](CCCCN)NC(=O)c2ccccc2)cc1 (Bz-Lys-Arg-[Phe(4-Me)]-aldehyde) | 17.7 |
| N=C(N)NCCC[C@@H](C=O)NC(=O)[C@H](CCCCN)NC(=O)c1ccccc1 (Bz-Lys-Arg-aldehyde) | 1.4 |

| Compound | IC50 [µM] |
| --- | --- |
| N=C(N)NCCC[C@@H](C=O)NC(=O)[C@H](CC(N)=O)NC(=O)[C@H](CCCCN)NC(=O)c1ccccc1 (Bz-Lys-Asn-Arg-aldehyde) | 71.8 |
| Cc1ccc(C[C@@H](C=O)NC(=O)[C@H](CCCCNC(=O)OCc2ccccc2)NC(=O)[C@H](CCCCN)NC(=O)c2ccccc2)cc1 (Bz-Lys-Lys(Cbz)-[Phe(4-Me)]-aldehyde) | 43.3 |
| Cc1ccc(C[C@H](NC(=O)[C@H](CCCCN)NC(=O)c2ccccc2)C(=O)N[C@H](C=O)CCCNC(=N)N)cc1 (Bz-Lys-[Phe(4-Me)]-Arg-aldehyde) | 194 |
| Cc1ccc(C[C@@H](C=O)NC(=O)[C@H](Cc2ccc(OCc3ccccc3)cc2)NC(=O)c2ccccc2)cc1 (Bz-Tyr(Bn)-[Phe(4-Me)]-aldehyde) | 12.7 |
| CCCC[C@H](NC(=O)c1ccccc1)C(=O)N[C@@H](C)C(=O)N[C@@H](CCCNC(=N)N)C(=O)N[C@H](C=O)CCCNC(=N)N (Bz-[Nle]ARR-aldehyde) | 3.8 |
| CCCC[C@H](NC(=O)c1ccccc1)C(=O)N[C@@H](Cc1ccccc1)C(=O)N[C@@H](CCCNC(=N)N)C(=O)N[C@H](C=O)CCCNC(=N)N (Bz-[Nle]FRR-aldehyde) | 4.2 |
| CCCC[C@H](NC(=O)c1ccccc1)C(=O)N[C@@H](CCCCN)C(=O)N[C@@H](Cc1ccccc1)C(=O)N[C@H](C=O)CCCNC(=N)N (Bz-[Nle]KFR-aldehyde) | 108 |
| CCCC[C@H](NC(=O)c1ccccc1)C(=O)N[C@@H](CCCCN)C(=O)N[C@@H](CCCCN)C(=O)N[C@H](C=O)CCCNC(=N)N (Bz-[Nle]KKR-aldehyde) | 1.9 |
| CCCC[C@H](NC(=O)c1ccccc1)C(=O)N[C@@H](CCCCN)C(=O)N[C@@H](CCC(N)=O)C(=O)N[C@H](C=O)CCCNC(=N)N (Bz-[Nle]KQR-aldehyde) | 1.7 |
| CCCC[C@H](NC(=O)c1ccccc1)C(=O)N[C@@H](CCCCN)C(=O)N[C@@H](CCCNC(=N)N)C(=O)N[C@H](C=O)Cc1ccccc1 (Bz-[Nle]KRF-aldehyde) | 110 |
| CCCC[C@H](NC(=O)c1ccccc1)C(=O)N[C@@H](CCCCN)C(=O)N[C@@H](CCCNC(=N)N)C(=O)N[C@H](C=O)Cc1cnc[nH]1 (Bz-[Nle]KRH-aldehyde) | 43.1 |
| CCCC[C@H](NC(=O)c1ccccc1)C(=O)N[C@@H](CCCCN)C(=O)N[C@@H](CCCNC(=N)N)C(=O)N[C@H](C=O)CCCCN (Bz-[Nle]KRK-aldehyde) | 57.7 |
| CCCC[C@H](NC(=O)c1ccccc1)C(=O)N[C@@H](CCCCN)C(=O)N[C@@H](CCCNC(=N)N)C(=O)N[C@H](C=O)CCCNC(=N)N (Bz-[Nle]KRR-aldehyde) | 4.1 |
| CCCC[C@H](NC(=O)c1ccccc1)C(=O)N[C@@H](CCCCN)C(=O)N[C@@H](CCCNC(=N)N)C(=O)N[C@H](C=O)Cc1ccc(NC(=N)N)cc1 (Bz-[Nle]KR[Phe(4-guanidino)]-aldehyde) | 11.8 |
| CCCC[C@H](NC(=O)c1ccccc1)C(=O)N[C@@H](CCCCN)C(=O)N[C@@H](CCCNC(=N)N)C(=O)N[C@H](C=O)c1ccccc1 (Bz-[Nle]KR[Phg]-aldehyde) | 90.9 |
